Results from patent US12502362B2, “Inhibitors of nucleotidyltransferase superfamily enzymes as antibiotics” (priority 2017, dated 2025).
Converted amounts (≈) assume the structure as drawn. Read-outs that look alike come from different tables or passages of the source.

Columns and labels:
[1] = system: MDR E. coli; format: cell-based
Description: (§1) All these MDR-bacteria are at least resistant to two classes of the antibiotics among five groups and/or specific antibiotics including quinolones/fluorquinolones, carbapenems, cephalosporins, aminoglycosides and piperacillin-tazobactam.

[2] = system: MDR Acinetobacter baumannii; format: cell-based
Description: as §1

[3] = system: Citrobacter koseri; experiment: Antibiotic susceptibility of Citrobacter koseri strain; format: cell-based; details: Ck1 (Citrobacter koseri)
Description: as §1

[4] = system: Morganella morganii; experiment: Antibiotic susceptibility of Morganella morganii strain; format: cell-based; details: Mm1 (Morganella morganii)
Description: as §1

[5] = system: Enterobacter cloacae complex; experiment: Antibiotic susceptibility of Enterobacter cloacae complex strain; format: cell-based; details: Ecc1 (Enterobacter cloacae complex)
Description: as §1

[6] = system: Klebsiella pneumonia; experiment: Antibiotic susceptibility of Klebsiella pneumonia strains; format: cell-based
Description: as §1

[7] = Cytotoxicity assay (CC50), MTS; format: cell-based, human; details: human, HEPDES19 cells
Description: (§2) To further characterize the compounds, the minimal inhibitory concentration (MIC80) were determined for selected compounds. MIC80 is defined as the compound concentration at which ≥80% bacterial growth is inhibited compare to untreated controls. Meanwhile, for the selected compounds, cytotoxicity assays (CC50) were performed on a HepG2-derived hepatoblastoma cell line (HEPDES19). […] For CC50 evaluation, soluble tetrazolium dye (MTS) was used to measure mitochondrial toxicity in a human hepatoblastoma cell line (18). The bacteria (E. coli, S. saprophyticus and A. baumannii) used in MIC80 measurements were the same as that in the primary screening, but for Staphylococcus, S. aureus is used primarily because it is a common pathogen in Staphylococcaeae family, while S. saprophyticus is part of the normal human flora.

[8] = system: E. coli (ATCC 35218); experiment: microbe, parasite or virus in culture; format: cell-based; details: Escherichia coli, ATCC35218, read-out: MIC80 E. coli, E. coli ATCC 35218
Description: as §2

[9] = system: Acinetobacter baumannii (Abl, from a patient); experiment: microbe, parasite or virus in culture; format: cell-based; details: Acinetobacter baumannii, read-out: MIC80 A. baumannii, A. baumannii Ab1, MDR patient isolate
Description: as §2

[10] = system: Staphylococcus saprophyticus (ATCC BAA-750); experiment: MIC80 on S. saprophyticus; format: cell-based; details: Staphylococcus saprophyticus, ATCCBAA750; S. saprophyticus ATCC BAA-750; read-out: MIC80 S. sapro
Description: as §2

[11] = system: S. aureus and/or S. saprophyticus; experiment: MIC80 on S. aureus and/or S. saprophyticus; format: cell-based; details: read-out: MIC80 against S. aureus and/or S. saprophyticus
Description: as §2, with “(HEPDES19). […] For the MIC80 measurements, a 1.5 fold dilution series of the compounds was prepared in Mueller-Hinton II broth.” for “(HEPDES19).”, “flora. S. aureus (ATCC 29213) is methicillin-sensitive Staphylococcus aureus (MSSA) strain and it was used as a model strain to measure the MIC80.” for “flora.”

[12] = system: S. aureus (ATCC 29213); experiment: MIC80 on S. aureus; format: cell-based, Staphylococcus aureus; details: Staphylococcus aureus, ATCC 29213 / MSSA, read-out: MIC80 S. aureus, S. aureus ATCC 29213 (MSSA); ≥80% growth inhibition
Description: as §2

[13] = system: HepG2-derived hepatoblastoma cell line (HEPDES19); experiment: Cytotoxicity assay (CC50), MTS; format: cell-based, human; details: HEPDES19 cells
Description: as §2

[14] = HepG2-derived hepatoblastoma cell line (HEPDES19)

Molecule	Antibiotic susceptibility ([1]; Ec1 (E. coli))	Antibiotic susceptibility ([1]; Ec2 (E. coli))	Antibiotic susceptibility ([1]; Ec3 (E. coli))	Antibiotic susceptibility ([1]; Ec4 (E. coli))	Antibiotic susceptibility ([1]; Ec5 (E. coli))	Antibiotic susceptibility ([2]; Ab3 (Acinetobacter baumannii))	Antibiotic susceptibility [3]	Antibiotic susceptibility [4]	Antibiotic susceptibility [5]	Antibiotic susceptibility ([6]; Kp1 (Klebsiella pneumonia))	Antibiotic susceptibility ([6]; Kp6 (Klebsiella pneumonia))	Antibiotic susceptibility ([2]; Ab1 (Acinetobacter baumannii))	Antibiotic susceptibility ([2]; Ab2 (Acinetobacter baumannii))	Antibiotic susceptibility ([2]; Ab4 (Acinetobacter baumannii))	Antibiotic susceptibility ([2]; Ab5 (Acinetobacter baumannii))	also measured
Piperacillin-tazobactam [TZP]	S	S	S	S	S	R	I	S	R	S	R	–	–	–	–	–
O=C(Oc1cccccc1=O)c1ccccc1 [Compound 62]	–	–	–	–	–	–	–	–	–	–	–	–	–	–	–	CC50 [7, 14]: > 50 µM; MIC80 [8]: 111 µM (≈ 25.1 µg/mL); MIC80 [9]: 83.4 µM (≈ 18.9 µg/mL); MIC80 [10]: 10.3 µM (≈ 2.33 µg/mL); MIC80 [11]: < 20 µM; MIC80 [12]: 19.8 µM (≈ 4.48 µg/mL)
CC(C)(O/N=C(\C(=O)N[C@@H]1C(=O)N2C(C(=O)[O-])=C(C[n+]3ccccc3)CS[C@H]12)c1csc(N)n1)C(=O)O [CAZ, Ceftazidime]	R	R	R	R	R	R	R	R	R	R	R	R	R	R	R	–
O=c1c(O)ccc(-c2ccccc2)cc1O [Compound 262]	–	–	–	–	–	–	–	–	–	–	–	–	–	–	–	CC50 [7, 14]: > 50 µM; CC50 [13]: 57 µM; MIC80 [8]: 66.7 µM (≈ 14.3 µg/mL); MIC80 [9]: 100 µM (≈ 21.4 µg/mL); MIC80 [10]: 19.8 µM (≈ 4.24 µg/mL); MIC80 [11]: < 20 µM; MIC80 [12]: 19.8 µM (≈ 4.24 µg/mL)
NC[C@H]1O[C@H](O[C@H]2[C@H](O)[C@@H](O[C@H]3O[C@H](CO)[C@@H](O)[C@H](N)[C@H]3O)[C@H](N)C[C@@H]2N)[C@H](N)C[C@@H]1O [TOB, Tobramycin]	I	I	I	R	R	S	I	I	S	S	R	S	S	S	I	–
O=c1ccccc(Br)c1O [Compound 54]	–	–	–	–	–	–	–	–	–	–	–	–	–	–	–	CC50 [7, 14]: > 50 µM; MIC80 [8]: 70.4 µM (≈ 14.2 µg/mL); MIC80 [9]: 44.4 µM (≈ 8.93 µg/mL); MIC80 [10]: 14.9 µM (≈ 3 µg/mL); MIC80 [11]: < 20 µM; MIC80 [12]: 16.1 µM (≈ 3.24 µg/mL)
Amoxicillin-clavulanic acid [AMC]	S	S	S	S	I	R	I	R	R	S	I	R	R	R	S	–
Ampicillin-Sulbactam [SAM]	R	I	I	R	R	S	–	R	–	R	R	S	S	S	I	–
CC1(C)S[C@@H]2[C@H](NC(=O)[C@H](N)c3ccccc3)C(=O)N2[C@H]1C(=O)O [AMP, Ampicillin]	R	R	R	R	R	R	–	R	–	R	R	R	R	R	R	–
C[C@@H](O)[C@H]1C(=O)N2C(C(=O)O)=C(S[C@@H]3CN[C@H](C(=O)N(C)C)C3)[C@H](C)[C@H]12 [MEM, Meropenem]	S	S	S	S	S	–	S	–	S	S	–	–	–	–	–	–
C[C@@H](O)[C@H]1C(=O)N2C(C(=O)O)=C(S[C@@H]3CN[C@H](C(=O)Nc4cccc(C(=O)O)c4)C3)[C@H](C)[C@H]12 [ETP, Ertapenem]	S	S	S	S	S	–	S	S	S	S	S	–	–	–	–	–
CO/N=C(\C(=O)N[C@@H]1C(=O)N2C(C(=O)O)=C(CSc3nc(=O)c(=O)[nH]n3C)CS[C@H]12)c1csc(N)n1 [CRO, Ceftriaxone]	R	R	R	R	R	R	S	I	R	R	R	R	R	R	R	–
CC(C)c1ccc(O)c(=O)c(O)c1 [Compound 46]	–	–	–	–	–	–	–	–	–	–	–	–	–	–	–	CC50 [7]: < 50 µM; MIC80 [8]: 44.4 µM (≈ 8 µg/mL); MIC80 [9]: 100 µM (≈ 18 µg/mL); MIC80 [10]: 29.6 µM (≈ 5.33 µg/mL); MIC80 [11]: < 20 µM; MIC80 [12]: 19.8 µM (≈ 3.57 µg/mL)
Cc1nnc(SCC2=C(C(=O)O)N3C(=O)[C@@H](NC(=O)Cn4cnnn4)[C@H]3SC2)s1 [CFZ, Cefazolin]	R	R	R	R	R	R	R	R	–	R	R	R	R	R	R	–
CO/N=C(\C(=O)N[C@@H]1C(=O)N2C(C(=O)[O-])=C(C[N+]3(C)CCCC3)CS[C@H]12)c1csc(N)n1 [FEP, Cefepime]	R	R	R	R	R	R	S	S	–	R	R	R	R	R	R	–
